CNC(=O)c1cc(Oc2ccc(NC(=O)Nc3ccc(Cl)c(C(F)(F)F)c3)cc2)ccn1.Cc1ccc(S(=O)(=O)O)cc1
solubility (mole fraction)
Conditions | 283.15 K | 293.15 K | 303.15 K | 313.15 K | 323.15 K | 333.15 K
in isobutanol | 6.18e-05 | 9.67e-05 | 0.000149 | 0.000216 | 0.000284 | 0.000423
in isopropanol | 7.81e-05 | 0.000109 | 0.00016 | 0.000229 | 0.000311 | 0.000442
in n-butanol | 0.000132 | 0.000163 | 0.000238 | 0.000316 | 0.000419 | 0.000541
in n-pentanol | 5.78e-05 | 8.76e-05 | 0.000148 | 0.000209 | 0.000272 | 0.000394
in n-propanol | 0.000139 | 0.000175 | 0.000258 | 0.000344 | 0.000456 | 0.000622

CNC(=O)c1cc(Oc2ccc(NC(=O)Nc3ccc(Cl)c(C(F)(F)F)c3)cc2)ccn1
solubility (mole fraction)
Conditions | 283.15 K | 293.15 K | 303.15 K | 313.15 K | 323.15 K | 333.15 K
in isobutanol | 0.000253 | 0.000379 | 0.000715 | 0.00104 | 0.00155 | 0.00216
in isopropanol | 0.000509 | 0.000638 | 0.00104 | 0.00152 | 0.00226 | 0.00325
in n-butanol | 0.000645 | 0.000816 | 0.0013 | 0.00193 | 0.00288 | 0.00417
in n-pentanol | 0.000599 | 0.000819 | 0.00122 | 0.00173 | 0.00256 | 0.00377
in n-propanol | 0.000678 | 0.000888 | 0.00137 | 0.00204 | 0.00313 | 0.00456
